Data on one compound can be found in patent US8337447B2, “Device for delivery of antifibrotic agents and method” (priority 2006, dated 2012).

This test concerns human conjunctival fibroblasts. The test is described as follows: Polymer cytotoxicity in vitro, toluidine blue staining after 7 days of culture. Type of test: cell-based. Conditions: MMC incorporated in salt-free P-HEMA hydrogel (Procedure 2), exponential fit, r2 0.95.

The structures appear in SMILES notation.

Protocol: Measurement of polymer cytotoxicity in vitro: A single 8 mm disk of sterile polymer was affixed to the center of each 60 mm tissue culture dish with clear RTV silicone cement. The silicone cement was sterile as it came from the tube and care was taken during this procedure to maintain the sterility of both the polymer and the tissue culture dish. The cement was allowed to cure for 1-2 hours in a sterile environment, until no odor of acetic acid could be detected. […] The culture medium was removed and the cell layer was gently washed 3 times with 5 ml of phosphate-buffered saline. […] In some cases, the solutions had to be diluted with 2% aqueous sodium dodecyl sulfate to bring the absorbance within the linear range of the spectrophotometer. […]
Once these parameters had been determined, the study was repeated with early passage cultures human conjunctival fibroblasts, the cell type against which these slow release polymers will ultimately be targeted. […]
A single 8 mm disk of polymer was affixed to each culture dish with silicone cement and cells were fixed and stained 7 days after inoculation, as described in Methods. After solubilization of the cell-bound dye, the color (measured as absorbance at 650 nm) was a measure of the number of cells in each dish. […]

`CO[C@@]12[C@H](COC(N)=O)C3=C(C(=O)C(C)=C(N)C3=O)N1C[C@@H]1N[C@@H]12` [MMC, mitomycin C]: the “concentration of MMC that inhibited 50% of cell proliferation (IC50)” value amounted to 0.15 mg/g dried gel.
